Source: publication PMC8471380 (Molecules, 2021)

Legend:
[1] = system: tubulin and microtubule-associated proteins (Tb+MAP); assay: GTP-dependent Tb+MAP polymerization; format: biochemical, mouse; conditions: 100 µM compound; 0.1 mM GTP, 37 °C
Text: A crude fraction of tubulin and microtubule-associated proteins (Tb+MAP) was isolated from mouse brain tissue by a polymerization–depolymerization method. The procedure of mouse euthanasia using cervical dislocation for Tb+MAP preparation is in compliance with the Guidelines for Animal Experiments, which were approved by the local bioethics committee of the IPAC RAS. The freshly dissected brain was immediately placed on ice, cleared of meninges and surface blood vessels, and washed with cold buffer A (50 mM Tris-HCl, pH 6.9 at 4 °C, 2 mM EGTA). The extracted brain tissue was homogenized under ice cooling in the same buffer using a Potter S homogenizer (Sartorius). The resulting homogenate was centrifuged at 10,000× g for 30 min on an Avanti 25 centrifuge (Beckman) using a JA-14 rotor for the precipitation of non-ruptured cells. The precipitate was discarded, and the supernatant was again centrifuged at 100,000× g for 60 min at 4 °C on an Optima MAX XP centrifuge (Beckman) using a MLA-50 rotor. The precipitate was again discarded. The protein concentration in the supernatant was determined by the Bradford assay using the Bio-Rad Protein Assay kit (Bio-Rad, Hercules, CA, USA) according to manufacturer’s instructions. The resulting supernatant was a cytosolic fraction enriched in microtubular proteins (Tb and MAP).
The Tb+MAP preparation was centrifuged at 5000× g for 10 min at 4 °C immediately before polymerization in order to remove denatured and aggregated protein molecules by precipitation. The Tb+MAP polymerization was performed at 37 °C in buffer A in the presence of 0.1 mM GTP after addition of 100 µM of test compound or the same volume of vehicle (DMSO). The protein concentration in the sample was 0.2 mg/mL. The polymerization kinetics was monitored on a Victor 3 or EnVision microplate reader (Perkin Elmer, USA) at 355 nm and the stabilized rate of polymerization after the first wave was measured (dA355/dt).

equine serum BChE [2] = molecular target: T1, equine serum BChE (Equus caballus, UniProt P81908); assay: biochemical; conditions: 5 min incubation; mean ± SEM, n = 3
T1 construct: equine serum BChE; purchased Sigma; host or cells: equine serum
Method: (§3) Reagents blanks consisted of reaction mixtures without substrates. […] Final enzyme and substrate concentrations were 0.02 unit/mL and 1 mM, respectively. Assays were carried out with a blank containing all constituents except porcine CES to assess non-enzymatic hydrolysis. The measurements were performed on a FLUOstar OPTIMA multifunctional microplate reader (BMG LABTECH, Ortenberg, Germany). The compounds were dissolved in DMSO. The incubation mixture contained 2% (v/v) of the solvent. […] The sample of the appropriate enzyme was incubated with the test compound for 5 min, and then the residual enzymatic activity was determined. Each experiment was performed in triplicate. […] Each experiment was performed in triplicate. The IC50 values were calculated with Origin 6.1 software.

equine serum BChE [3] = molecular target: T1, equine serum BChE; assay: Kinetic study of BChE inhibition (Lineweaver-Burk); format: biochemical
Method: (§1) Kinetic studies were performed using commercial human erythrocyte AChE, equine serum BChE and porcine liver CES (Sigma, USA). The AChE and BChE activity was evaluated by Ellman’s method (λ = 412 nm) using 1 mM acetylthiocholine and 1 mM butyrylthiocholine (Sigma, St. Louis, MO, USA), respectively, as the substrate in 100 mM phosphate buffer, pH 7.5, 0.33 mM DTNB, 0.02 unit/mL of AChE or BChE at 25 °C as described in detail in [71]. Reagents blanks consisted of reaction mixtures without substrates. The CES activity was measured spectrophotometrically based on the release of 4-nitrophenol (λ = 405 nm) in the presence of 1 mM 4-nitrophenyl acetate as the substrate in 100 mM phosphate buffer, pH 8.0, at 25 °C as described in [71]. Final enzyme and substrate concentrations were 0.02 unit/mL and 1 mM, respectively. Assays were carried out with a blank containing all constituents except porcine CES to assess non-enzymatic hydrolysis. The measurements were performed on a FLUOstar OPTIMA multifunctional microplate reader (BMG LABTECH, Ortenberg, Germany). The compounds were dissolved in DMSO. The incubation mixture contained 2% (v/v) of the solvent. […] The sample of the appropriate enzyme was incubated with the test compound for 5 min, and then the residual enzymatic activity was determined. Each experiment was performed in triplicate. […]. […] Each experiment was performed in triplicate. The IC50 values were calculated with Origin 6.1 software.
(§2) The mechanisms of AChE and BChE inhibition were assessed by a thorough analysis of enzyme kinetics. The residual activity was determined after a 5-min incubation at 25 °C (for temperature equilibration) with three increasing concentrations of the inhibitor and six decreasing substrate concentrations.

[4] = system: isolated rat liver mitochondria; assay: Ca2+-induced mitochondrial swelling (MPT pore opening); format: biochemical; conditions: 30 µM compound; 12.5 µM Ca2+; 10 mM glutamate, 2 mM malate, 10 mM succinate; percentage relative to the reference compound
Method: Experiments were performed using outbred male rats weighing 200–220 g. The animals were housed under standard vivarium conditions in a normal day/night cycle and had ad libitum access to water and food. The procedure of rat euthanasia using carbon dioxide (CO2) inhalation for mitochondria preparation is in compliance with the Guidelines for Animal Experiments, which were approved by the local bioethics committee of the IPAC RAS.
Rat liver mitochondria were isolated by conventional differential centrifugation. Membrane potential of rat liver mitochondria was measured using the potential-sensitive fluorescent probe Safranine A on a Victor 3 multilabel plate reader (Perkin Elmer, Waltham, MA, USA). The fluorescence was recorded at λex = 485 nm and λem = 590 nm. Mitochondrial swelling was measured by spectrophotometry in 96-well clear bottom plates on a Victor 3 microplate reader (Perkin Elmer, Waltham, MA, USA) at 620 nm; CaCl2 was added to induce mitochondrial swelling (MPT opening).

PAS of EeAChE = molecular target: T2, PAS of EeAChE (Electrophorus electricus, UniProt O42275); format: binding; conditions: 20 µM compound; 7 µM EeAChE, 8 µM propidium iodide; mean ± SEM, n = 3
T2 construct: AChE from Electrophorus electricus (EeAChE, type VI-S, lyophilized powder); purchased Sigma-Aldrich type VI-S; host or cells: Electrophorus electricus tissue
Method: The compounds were evaluated as potential inhibitors of proaggregation activity of AChE by measuring the displacement of propidium iodide from the PAS of the enzyme [53] using a fluorescence method [28]. AChE from Electrophorus electricus (EeAChE, type VI-S, lyophilized powder, Sigma-Aldrich, St. Louis, MO, USA) was used for consistency with our previous studies [8, 13, 63, 74]. The fluorescence intensity of propidium iodide bound to AChE increases several-fold. A decrease in the fluorescence intensity in the presence of the test compounds is indicative of their ability to bind to the AChE PAS and, correspondingly, to inhibit β-amyloid aggregation.
EeAChE (7 µM) was incubated with 20 µM of the test compound in 1 mM Tris-HCl buffer, pH 8.0, at 25 °C for 15 min. Then a solution of propidium iodide was added (final concentration 8 µM), the mixture was incubated for 15 min, and the fluorescence spectrum was recorded (excitation at 530 nm and emission at 600 nm). […] The blank contained propidium iodide at the same concentration in 1 mM Tris-HCl buffer, pH 8.0 at 25 °C. The measurements were performed in triplicate on a FLUOstar OPTIMA multifunctional microplate reader.
The degree of displacement of propidium iodide from the PAS of AChE (% displacement) was calculated by the equation:% displacement = 100 − (IFAChE + Propidium + inhibitor/IFAChE + Propidium) × 100, where IFAChE + Propidium is the fluorescence intensity of propidium iodide bound to EeAChE in the absence of the test compound (taken as 100%), and IFAChE + Propidium + inhibitor is the fluorescence intensity of propidium iodide bound to EeAChE in the presence of the test compound.

porcine liver CES = molecular target: T3, porcine liver CES (Sus scrofa, UniProt Q29550); assay: CES inhibition, 4-nitrophenyl acetate hydrolysis; format: biochemical; conditions: read-out: % of inhibition of CES with 20 µM concentration of the compound
T3 sequence (Q29550 19-566): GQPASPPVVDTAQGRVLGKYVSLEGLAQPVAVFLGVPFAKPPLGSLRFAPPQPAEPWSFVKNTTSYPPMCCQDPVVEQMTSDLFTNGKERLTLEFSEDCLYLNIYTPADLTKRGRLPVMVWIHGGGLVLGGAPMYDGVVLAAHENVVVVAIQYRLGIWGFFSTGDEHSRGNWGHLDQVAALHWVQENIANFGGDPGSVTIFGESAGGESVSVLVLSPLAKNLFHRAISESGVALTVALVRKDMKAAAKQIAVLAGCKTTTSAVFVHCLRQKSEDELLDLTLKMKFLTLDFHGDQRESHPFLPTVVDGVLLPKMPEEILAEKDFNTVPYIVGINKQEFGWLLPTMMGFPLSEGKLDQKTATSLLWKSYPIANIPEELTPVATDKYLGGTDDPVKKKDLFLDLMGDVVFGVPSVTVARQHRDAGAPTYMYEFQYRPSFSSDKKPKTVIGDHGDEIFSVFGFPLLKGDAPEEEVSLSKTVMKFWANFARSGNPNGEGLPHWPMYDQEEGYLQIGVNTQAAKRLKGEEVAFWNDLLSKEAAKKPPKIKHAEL
Method: as §3

human erythrocyte AChE [5] = molecular target: T4, human erythrocyte AChE (Homo sapiens, UniProt P22303); assay: biochemical; conditions: mean ± SEM, n = 3
T4 construct: commercial human erythrocyte AChE; purchased Sigma; host or cells: human erythrocytes

[6] = molecular target: T5, ifenprodil-binding site of NMDA receptor (NR2B subunit) (Rattus norvegicus, UniProt P35439+Q00960); assay: Radioligand binding assay, [3H]ifenprodil displacement
T5 construct: from tissue; host or cells: rat hippocampus membranes
Method: (§4) The effect of the test compounds on radioligand binding to NMDA receptors was evaluated by a modified method, as previously reported [83]. The following two radioligands were used: [^3H] […] A hippocampal membrane preparation for the radioligand binding assay was made as described previously [86, 87]. The obtained membrane pellet was resuspended in a working buffer (5 mM HEPES/4.5 mM Tris, pH 7.6 at 4 °C) in a ratio of 1:5 and stored in liquid nitrogen. The reaction mixture (the final volume was 0.5 mL) contained the working buffer (200 μL), a 50 nM radioligand solution (50 μL) and the membrane suspension (250 μL). The nonspecific binding was evaluated in the presence of 1 mM of the unlabeled ligand (50 μL).
(§5) For the binding assay, the reaction mixture was incubated at room temperature for 2 h. After the incubation, the samples were filtered through GF/B glass fiber filters (Whatman), washed with the working buffer, dried and transferred to scintillation vials. Then the scintillation fluid (5 mL), which is composed of diphenyloxazole (PPO) (4 g) and bis(5-phenyl-2-oxazolyl)benzene (POPOP) (0.2 g) in toluene (1 L) were added to the vials.
(§6) The effect of the test compounds on the binding of [^3H] […] The values of Ki were calculated according to a previously described method [88].

[7] = molecular target: T6, MK-801-binding (intrachannel) site of NMDA receptor (Rattus norvegicus, UniProt P35439); assay: Radioligand binding assay, [3H]MK-801 displacement
T6 construct: from tissue; host or cells: rat hippocampus membranes
Method: as §4, §5, §6

human erythrocyte AChE [8] = molecular target: T4, human erythrocyte AChE; assay: Kinetic study of AChE inhibition (Lineweaver-Burk); format: biochemical
Method: as §1, §2

[9] = Lineweaver-Burk double-reciprocal plots

T1 sequence (P81908 whole entry): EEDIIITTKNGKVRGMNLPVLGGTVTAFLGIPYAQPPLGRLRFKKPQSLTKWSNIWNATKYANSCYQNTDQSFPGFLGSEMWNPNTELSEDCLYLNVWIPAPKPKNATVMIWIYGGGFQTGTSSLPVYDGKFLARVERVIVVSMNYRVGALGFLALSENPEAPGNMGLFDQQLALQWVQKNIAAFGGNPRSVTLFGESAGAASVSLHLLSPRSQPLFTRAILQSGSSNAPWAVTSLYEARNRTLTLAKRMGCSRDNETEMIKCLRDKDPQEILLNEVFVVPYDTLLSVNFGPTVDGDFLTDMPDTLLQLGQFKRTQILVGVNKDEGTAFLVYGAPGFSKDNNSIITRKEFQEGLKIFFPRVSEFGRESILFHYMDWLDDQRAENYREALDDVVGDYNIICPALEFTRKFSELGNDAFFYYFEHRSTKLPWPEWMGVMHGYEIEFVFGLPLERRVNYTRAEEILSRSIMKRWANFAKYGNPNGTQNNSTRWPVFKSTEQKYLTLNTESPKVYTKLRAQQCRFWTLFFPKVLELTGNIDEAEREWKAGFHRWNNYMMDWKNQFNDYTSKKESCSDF
T4 sequence (P22303 32-617 isoform P22303-2 limits assumed): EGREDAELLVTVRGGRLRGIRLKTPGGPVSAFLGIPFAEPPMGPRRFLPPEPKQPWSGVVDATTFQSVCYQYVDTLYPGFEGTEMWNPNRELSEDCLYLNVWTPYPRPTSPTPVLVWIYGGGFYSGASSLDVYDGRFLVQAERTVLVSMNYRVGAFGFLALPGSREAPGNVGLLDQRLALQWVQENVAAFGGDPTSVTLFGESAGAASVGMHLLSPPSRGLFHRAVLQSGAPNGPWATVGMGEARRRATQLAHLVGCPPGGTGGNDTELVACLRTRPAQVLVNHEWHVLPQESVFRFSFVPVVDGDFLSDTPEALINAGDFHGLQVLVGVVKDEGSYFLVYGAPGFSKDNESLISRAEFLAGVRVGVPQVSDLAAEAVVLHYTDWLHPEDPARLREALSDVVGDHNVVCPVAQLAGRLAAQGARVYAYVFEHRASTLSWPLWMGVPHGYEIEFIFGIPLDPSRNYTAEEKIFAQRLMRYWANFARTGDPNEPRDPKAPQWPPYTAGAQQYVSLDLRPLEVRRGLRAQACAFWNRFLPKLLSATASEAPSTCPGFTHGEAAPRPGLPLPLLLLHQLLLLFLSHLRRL
T5 sequence (Q00960 27-1482, other chains not shown): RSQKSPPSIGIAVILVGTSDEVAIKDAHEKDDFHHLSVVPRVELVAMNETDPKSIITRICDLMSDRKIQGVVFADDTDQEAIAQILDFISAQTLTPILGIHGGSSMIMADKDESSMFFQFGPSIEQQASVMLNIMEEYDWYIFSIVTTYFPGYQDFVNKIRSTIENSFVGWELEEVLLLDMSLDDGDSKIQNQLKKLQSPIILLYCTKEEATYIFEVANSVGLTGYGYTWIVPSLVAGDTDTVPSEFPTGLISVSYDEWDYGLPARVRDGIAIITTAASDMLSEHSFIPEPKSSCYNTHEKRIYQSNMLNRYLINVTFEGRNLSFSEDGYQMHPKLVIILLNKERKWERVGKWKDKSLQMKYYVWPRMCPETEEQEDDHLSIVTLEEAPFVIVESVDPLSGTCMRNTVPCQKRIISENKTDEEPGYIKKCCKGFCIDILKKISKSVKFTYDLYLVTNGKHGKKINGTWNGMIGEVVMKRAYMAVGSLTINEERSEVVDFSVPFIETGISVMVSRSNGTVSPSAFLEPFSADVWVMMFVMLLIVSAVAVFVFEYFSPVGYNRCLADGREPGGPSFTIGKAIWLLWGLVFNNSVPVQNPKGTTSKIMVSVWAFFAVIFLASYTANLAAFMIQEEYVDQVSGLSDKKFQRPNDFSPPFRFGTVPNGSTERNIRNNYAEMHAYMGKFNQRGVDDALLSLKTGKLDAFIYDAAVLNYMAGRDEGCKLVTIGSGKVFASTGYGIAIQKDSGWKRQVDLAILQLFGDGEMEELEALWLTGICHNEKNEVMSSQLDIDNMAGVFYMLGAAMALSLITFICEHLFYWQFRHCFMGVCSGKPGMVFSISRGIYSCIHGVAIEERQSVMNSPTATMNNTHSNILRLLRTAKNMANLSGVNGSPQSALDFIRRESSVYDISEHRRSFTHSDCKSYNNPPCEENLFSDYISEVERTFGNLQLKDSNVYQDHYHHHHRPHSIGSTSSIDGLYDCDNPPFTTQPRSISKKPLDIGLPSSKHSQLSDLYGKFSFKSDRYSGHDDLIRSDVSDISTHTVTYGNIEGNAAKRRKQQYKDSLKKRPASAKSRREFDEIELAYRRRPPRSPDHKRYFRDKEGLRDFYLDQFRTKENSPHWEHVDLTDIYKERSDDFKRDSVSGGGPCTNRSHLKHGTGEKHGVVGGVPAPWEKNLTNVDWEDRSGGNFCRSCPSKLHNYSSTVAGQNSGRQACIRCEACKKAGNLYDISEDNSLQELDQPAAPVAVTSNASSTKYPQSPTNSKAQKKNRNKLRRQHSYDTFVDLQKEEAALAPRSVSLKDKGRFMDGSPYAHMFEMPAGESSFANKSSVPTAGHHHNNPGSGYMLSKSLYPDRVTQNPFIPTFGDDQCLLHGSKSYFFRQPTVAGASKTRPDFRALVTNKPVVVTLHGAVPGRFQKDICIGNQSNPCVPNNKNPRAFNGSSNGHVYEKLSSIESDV
T2 sequence (O42275 24-633): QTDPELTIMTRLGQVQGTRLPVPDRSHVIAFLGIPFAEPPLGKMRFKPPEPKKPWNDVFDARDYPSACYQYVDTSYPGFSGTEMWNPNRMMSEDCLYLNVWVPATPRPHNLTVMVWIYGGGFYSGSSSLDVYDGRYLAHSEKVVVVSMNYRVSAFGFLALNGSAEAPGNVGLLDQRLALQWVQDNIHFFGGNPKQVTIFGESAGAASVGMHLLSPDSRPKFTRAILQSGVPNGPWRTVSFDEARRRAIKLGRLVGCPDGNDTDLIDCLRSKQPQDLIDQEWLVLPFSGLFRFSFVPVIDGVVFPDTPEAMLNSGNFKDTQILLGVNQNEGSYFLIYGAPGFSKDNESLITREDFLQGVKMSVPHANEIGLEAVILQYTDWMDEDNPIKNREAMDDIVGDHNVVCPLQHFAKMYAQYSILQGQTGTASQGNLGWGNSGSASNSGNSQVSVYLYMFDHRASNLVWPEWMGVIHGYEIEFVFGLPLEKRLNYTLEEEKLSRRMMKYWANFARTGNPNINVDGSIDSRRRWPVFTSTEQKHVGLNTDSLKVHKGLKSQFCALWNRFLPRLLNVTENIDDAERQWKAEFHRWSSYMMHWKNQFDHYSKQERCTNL

`CN1CCc2c(c3cc(F)ccc3n2CCNC23CC4CC(C)(CC(C)(C4)C2)C3)C1.Cl.Cl` [Compound 4c, N-(2-(8-Fluoro-2-methyl-3,4-dihydro-1H-pyrido[4,3-b]indol-5(2H)-yl)ethyl)-3,5-dimethyladamantane-1-amine dihydrochloride] was tested, and the “Rate of Tb+MAP Polymerization (dA355/dt)” value [1] was 166 ± 11%, the IC50 (equine serum BChE [2]) was 0.729 ± 0.011 µM and the “αKi (non-competitive component), BChE” value (equine serum BChE [3]; Lineweaver-Burk analysis) was 0.70 ± 0.01 µM. For the same molecule, the Ki (equine serum BChE [3]; Lineweaver-Burk analysis, read-out: Ki (competitive component), BChE) was 0.23 ± 0.02 µM, the “Type of BChE inhibition” value (equine serum BChE [3]; [9]) was “mixed type of inhibition” and the “Rate of Ca2+-Induced Mitochondrial Swelling (dA620/dt)” value [4] was 31 ± 10%. For the same molecule, the “% of Displacement of Propidium Iodide from the PAS of EeAChE” value (PAS of EeAChE) was 13.1 ± 1.0%, the inhibition at 20 µM (porcine liver CES) was 6.9 ± 0.4% and the IC50 (human erythrocyte AChE [5]; 5 min incubation) was 39.7 ± 3.2 µM. For the same molecule, the Ki [6] was 3.1 ± 0.3 µM, the Ki [7] was 4.7 ± 0.5 µM and the “αKi (non-competitive component), AChE” value (human erythrocyte AChE [8]; Lineweaver-Burk analysis) was 45.5 ± 3.8 µM. For the same molecule, the Ki (human erythrocyte AChE [8]; Lineweaver-Burk analysis, read-out: Ki (competitive component), AChE) was 13.7 ± 0.02 µM and the “Type of AChE inhibition” value (human erythrocyte AChE [8]; [9]) was “mixed type of inhibition”.
`Cc1ccc2c(c1)c1c(n2CC(=O)NC23CC4CC(C)(CC(C)(C4)C2)C3)CCN(C)C1.Cl` [Compound 8b, 2-(2,8-Dimethyl-3,4-dihydro-1H-pyrido[4,3-b]indol-5(2H)-yl)-N-(3,5-dimethyladamantan-1-yl)acetamide hydrochloride] was tested, and the “Rate of Tb+MAP Polymerization (dA355/dt)” value [1] was 314 ± 46%, the IC50 (equine serum BChE [2]) was 33.7 ± 3.5 µM and the “Rate of Ca2+-Induced Mitochondrial Swelling (dA620/dt)” value [4] was 87 ± 33%. The “% of Displacement of Propidium Iodide from the PAS of EeAChE” value (PAS of EeAChE) was 2.8 ± 0.2%, the inhibition at 20 µM (porcine liver CES) was 6.4 ± 0.5% and the inhibition at 20 µM (human erythrocyte AChE [5]; read-out: % of inhibition of AChE with 20 µM concentration of the compound, 20 µM compound) was 17.7 ± 1.4%. It also gave a Ki [6] of 89.7 ± 8.7 µM and a Ki [7] of 55.1 ± 5.1 µM.
